Results on 48 molecules are retold here after patent publication US6686469B2, “Pesticidal pyrimidine-derivatives” (Novartis Animal Health US, Inc., priority 1999, dated 2004).

What is called melting point is the temperature of the solid-liquid transition.

The test system of data set [1] is Heliothis virescens. Kind of data set: Activity against Heliothis virescens. The data set is classed as in vivo. Conditions: young soya plants sprayed with 100 ppm active ingredient, first-stage caterpillars, 6 days later. How it is done: Young soya plants are sprayed with an aqueous emulsion spray mixture containing 100 ppm of active ingredient, when the spray coating has dried on they are colonised with 10 caterpillars of the first stage of Heliothis virescens and then placed in a plastic container. The percentage reduction of the population and of the feeding damage (% response) is determined 6 days later by comparing the total number of dead caterpillars and the feeding damage on the treated plants with those on the untreated plants.

In turn, `Fc1cccc(F)c1-c1ncc(-c2ccc(-c3ccc(C(F)(F)F)cc3)cc2)cn1` [Compound 1.2] came in with a melting point of 252 to 254 °C.

`FC(F)(F)c1ccc(-c2ccc(-c3cnc(-c4c(Cl)cccc4Cl)nc3)cc2)cc1` [Compound 1.3]: the melting point was in the range of 207 to 208 °C.

With `FC(F)(F)Oc1ccc(-c2ccc(-c3cnc(-c4c(Cl)cccc4Cl)nc3)cc2)cc1` [Compound 1.4], the melting point was 179 to 181 °C.

`Clc1ccc(-c2ccc(-c3cnc(-c4c(Cl)cccc4Cl)nc3)cc2)cc1Cl` [Compound 1.6] had a melting point of 224 to 226 °C.

With `COc1ccc(-c2ccc(-c3cnc(-c4c(Cl)cccc4Cl)nc3)cc2)cc1` [Compound 1.7], the melting point was in the range of 242 to 244 °C.

Regarding `Clc1ccc(-c2ccc(-c3cnc(-c4c(Cl)cccc4Cl)nc3)cc2)cc1` [Compound 1.8], the melting point is 205 to 220 °C.

In the case of `Clc1cc(Cl)cc(-c2ccc(-c3cnc(-c4c(Cl)cccc4Cl)nc3)cc2)c1` [Compound 1.9], the melting point is more than 220 °C.

`CC(C)(C)c1ccc(-c2ccc(-c3cnc(-c4c(Cl)cccc4Cl)nc3)cc2)cc1` [Compound 1.10] registered a melting point of 200 to 202 °C.

For the molecule `Fc1ccc(-c2ccc(-c3cnc(-c4c(F)cccc4Cl)nc3)cc2)cc1Cl` [Compound 1.11], the melting point lay within 186 to 189 °C.

For `Fc1cccc(Cl)c1-c1ncc(-c2ccc(-c3ccc(OC(F)(F)F)cc3)cc2)cn1` [Compound 1.12], the melting point was in the range of 160 to 163 °C.

`Fc1cccc(Cl)c1-c1ncc(-c2ccc(-c3ccc(Cl)c(Cl)c3)cc2)cn1` [Compound 1.13] yielded a melting point of 196 to 199 °C.

`Fc1cccc(Cl)c1-c1ncc(-c2ccc(-c3cccc(C(F)(F)F)c3)cc2)cn1` [Compound 1.14] gave a melting point of 187 to 190 °C.

Take `COc1ccc(-c2ccc(-c3cnc(-c4c(F)cccc4Cl)nc3)cc2)cc1` [Compound 1.15]: the melting point is 176 to 179 °C.

With `Fc1cccc(Cl)c1-c1ncc(-c2ccc(-c3ccc(C(F)(F)F)cc3)cc2)cn1` [Compound 1.17], the “efficacy: percentage reduction of the population and of the feeding damage (% response)” value in data set [1] was “over 80%”.

Molecule `Fc1cccc(F)c1-c1ncc(-c2ccc(-c3cccc(C(F)(F)F)c3)cc2)cn1` [Compound 1.18] returned a melting point of 217 to 218 °C.

`Fc1cccc(F)c1-c1ncc(-c2ccc(-c3ccc(OC(F)(F)F)cc3)cc2)cn1` [Compound 1.19, 2-(2,6-difluorophenyl)-5-(4′-trifluoromethoxybiphenyl-4-yl)-pyrimidine] came in with a melting point of 215 to 216 °C.

Take `COc1ccccc1-c1ccc(-c2cnc(-c3c(F)cccc3F)nc2)cc1` [Compound 1.20]: the melting point was 150 to 151 °C.

In turn, `Fc1cccc(F)c1-c1ncc(-c2ccc(-c3ccc(-c4ccccc4)cc3)cc2)cn1` [Compound 1.22] had a melting point of more than 260 °C.

For the molecule `Fc1ccc(-c2ccc(-c3cnc(-c4c(F)cccc4F)nc3)cc2)cc1` [Compound 1.23], the melting point was 212 to 213 °C.

As to `Fc1cccc(F)c1-c1ncc(-c2ccc(-c3ccccc3C(F)(F)F)cc2)cn1` [Compound 1.24], the melting point fell in the range of 100 to 102 °C.

Take `Fc1cccc(F)c1-c1ncc(-c2ccc(-c3ccc(Cl)cc3)cc2)cn1` [Compound 1.25]: the melting point lay in the range of 220 to 222 °C.

Take `Fc1cccc(F)c1-c1ncc(-c2ccc(-c3cccc(Cl)c3)cc2)cn1` [Compound 1.37]: the melting point is 178 to 179 °C.

Take `CCOc1nc(-c2c(F)cccc2F)ncc1-c1ccc(-c2ccc(OC(F)(F)F)cc2)cc1` [Compound 1.58]: the melting point fell in the range of 146 to 147 °C.

Turning to `CCOc1nc(-c2c(F)cccc2F)ncc1-c1ccc(-c2ccc(C(F)(F)F)cc2)cc1` [Compound 1.59], the melting point was in the range of 170 to 172 °C.

`CCOc1nc(-c2c(F)cccc2F)ncc1-c1ccc(-c2cc(Cl)cc(Cl)c2)cc1` [Compound 1.60]: the melting point fell in the range of 154 to 155 °C.

The molecule `CCNc1nc(-c2c(F)cccc2F)ncc1-c1ccc(-c2ccc(C(F)(F)F)cc2)cc1` [Compound 1.67] registered a melting point of 189 to 190 °C.

The molecule `CCNc1nc(-c2c(F)cccc2F)ncc1-c1ccc(-c2cc(Cl)cc(Cl)c2)cc1` [Compound 1.68] gave a melting point of 202 to 203 °C.

`CN(C)c1nc(-c2c(F)cccc2F)ncc1-c1ccc(-c2ccc(OC(F)(F)F)cc2)cc1` [Compound 1.69] showed a melting point of 146 to 147 °C.

`CN(C)c1nc(-c2c(F)cccc2F)ncc1-c1ccc(-c2ccc(C(F)(F)F)cc2)cc1` [Compound 1.70]: the melting point lay within 166 to 168 °C.

As for `CN(C)c1nc(-c2c(F)cccc2F)ncc1-c1ccc(-c2cc(Cl)cc(Cl)c2)cc1` [Compound 1.71], the melting point is 200 to 202 °C.

The molecule `CCSc1nc(-c2c(F)cccc2F)ncc1-c1ccc(-c2ccc(OC(F)(F)F)cc2)cc1` [Compound 1.72] gave a melting point of 127 to 128 °C.

Turning to `CCSc1nc(-c2c(F)cccc2F)ncc1-c1ccc(-c2ccc(C(F)(F)F)cc2)cc1` [Compound 1.73], the melting point fell in the range of 145 to 146 °C.

Take `CCSc1nc(-c2c(F)cccc2F)ncc1-c1ccc(-c2cc(Cl)cc(Cl)c2)cc1` [Compound 1.74]: the melting point is 154 to 156 °C.

`Fc1ccc(-c2ccc(-c3ccnc(-c4c(F)cccc4F)n3)cc2)cc1Cl` [Compound 2.1] showed a melting point of 133 to 134 °C.

`Fc1cccc(F)c1-c1nccc(-c2ccc(-c3ccc(C(F)(F)F)cc3)cc2)n1` [Compound 2.2, 2-(2,6-difluorophenyl)-4-(4′-trifluoromethylbiphenyl-4-yl)-pyrimidine] came in with a melting point of 141 to 142 °C.

On to `Fc1cccc(F)c1-c1nccc(-c2ccc(-c3ccc(OC(F)(F)F)cc3)cc2)n1` [Compound 2.3], for which the melting point is 102 to 103 °C.

The molecule `Fc1cccc(F)c1-c1nccc(-c2ccc(-c3cc(Cl)cc(Cl)c3)cc2)n1` [Compound 2.5] returned a melting point of 116 to 126 °C.

`Fc1cccc(F)c1-c1nccc(-c2ccc(-c3ccc(Cl)c(Cl)c3)cc2)n1` [Compound 2.6] gave a melting point of 134 to 140 °C.

`Fc1cccc(F)c1-c1nccc(-c2ccc(-c3ccc(-c4ccccc4)cc3)cc2)n1` [Compound 2.7] gave a melting point of 258 to 259 °C.

Consider `Fc1ccc(-c2ccc(-c3ccnc(-c4c(F)cccc4F)n3)cc2)cc1` [Compound 2.8], for which the melting point was in the range of 145 to 146 °C.

`Fc1cccc(F)c1-c1nccc(-c2ccc(-c3ccc(Cl)cc3Cl)cc2)n1` [Compound 2.9] came in with a melting point of 86 to 87 °C.

Molecule `Fc1cccc(F)c1-c1nccc(-c2ccc(-c3cccc(Cl)c3)cc2)n1` [Compound 2.10] gave a melting point of 82 to 83 °C.

As for `Fc1cccc(F)c1-c1nccc(-c2ccc(-c3ccc(Cl)cc3)cc2)n1` [Compound 2.11], the melting point was in the range of 167 to 168 °C.

Molecule `Fc1cccc(F)c1-c1nccc(-c2ccc(-c3ccccc3C(F)(F)F)cc2)n1` [Compound 2.12] displayed a melting point of 179 to 180 °C.

`Fc1cccc(F)c1C1N=CC=C(c2ccc(Br)cc2)N1Cl` (stereo not drawn) [Compound 3.354, 4-(4-bromophenyl)-2-(2,6-difluorophenyl)-3-chloropyrimidine] came in with a melting point of 146 to 148 °C.

In turn, `N#CN1C(c2ccc(Br)cc2)=CC=NC1c1c(F)cccc1F` (stereo not drawn) [Compound 3.355, 4-(4-bromophenyl)-3-cyano-2-(2,6-difluorophenyl)-pyrimidine] gave a melting point of 146 to 148 °C.

Take `Fc1cccc(F)c1-c1ncc(-c2ccc(Br)cc2)cn1` [Compound P1.3, 5-(4-bromophenyl)-2-(2,6-difluorophenyl)-pyrimidine]: the melting point was 193 to 194 °C.

As for `Fc1cccc(F)c1-c1nccc(-c2ccc(Br)cc2)n1` [Compound P1.5, 4-(4-bromophenyl)-2-(2,6-difluorophenyl)-pyrimidine], the melting point was in the range of 130 to 131 °C.
